Measured values: patent US20260217701A1, “SELECTIVE BET INHIBITORS AND USES THEREOF” (Tay Therapeutics Limited, priority 2022, published 2026)
Values joined by “and” are separate entries in the source; they are usually repeats but may differ in a detail not shown here. Identical values can stand only once.

Test system: collagen-induced arthritis
Experiment: Collagen-induced arthritis (CIA) model: clinical scores and paw volume; on Animal paw volume percent change (%): reference of the scale not given here; on Average animal paw volume percent change (%): reference of the scale not given here
Assay type: in vivo, Lewis rats
Details: for Overall Clinical Score: individual animals 1-8; for Animal paw volume percent change (%): individual animals
[1] = Day 12, CIA + Compound A 10 mg/kg
[2] = Day 13, L paw, group 5 CIA + Compound A 1 mg/kg
[3] = Day 13, L paw, group 6 CIA + Compound A 3 mg/kg
[4] = Day 13, L paw, group 7 CIA + Compound A 10 mg/kg
[5] = Day 13, R paw, group 5 CIA + Compound A 1 mg/kg
[6] = Day 13, R paw, group 6 CIA + Compound A 3 mg/kg
[7] = Day 13, R paw, group 7 CIA + Compound A 10 mg/kg
[8] = Day 13, CIA + Compound A 1 mg/kg
[9] = Day 13, CIA + Compound A 3 mg/kg
[10] = Day 13, CIA + Compound A 10 mg/kg
[11] = Day 14, L paw, group 5 CIA + Compound A 1 mg/kg
[12] = Day 14, L paw, group 6 CIA + Compound A 3 mg/kg
[13] = Day 14, L paw, group 7 CIA + Compound A 10 mg/kg
[14] = Day 14, R paw, group 5 CIA + Compound A 1 mg/kg
[15] = Day 14, R paw, group 6 CIA + Compound A 3 mg/kg
[16] = Day 14, R paw, group 7 CIA + Compound A 10 mg/kg
[17] = Day 14, CIA + Compound A 1 mg/kg
[18] = Day 14, CIA + Compound A 3 mg/kg
[19] = Day 14, CIA + Compound A 10 mg/kg
[20] = Day 15, L paw, group 5 CIA + Compound A 1 mg/kg
[21] = Day 15, L paw, group 6 CIA + Compound A 3 mg/kg
[22] = Day 15, L paw, group 7 CIA + Compound A 10 mg/kg
[23] = Day 15, R paw, group 5 CIA + Compound A 1 mg/kg
[24] = Day 15, R paw, group 6 CIA + Compound A 3 mg/kg
[25] = Day 15, R paw, group 7 CIA + Compound A 10 mg/kg
[26] = Day 15, CIA + Compound A 1 mg/kg
[27] = Day 15, CIA + Compound A 3 mg/kg

Cn1cc(-c2ccccc2)c(-c2cn(C)c(=O)c3[nH]c(-c4cnn(C(F)(F)F)c4)cc23)cc1=O [Compound A, 6-methyl-4-(1-methyl-2-oxo-5-phenyl-1,2-dihydropyridin-4-yl)-2-(1-(trifluoromethyl)-1H-pyrazol-4-yl)-1,6-dihydro-7H-pyrrolo[2,3-c]pyridin-7-one]
Average detailed clinical score, left forelimb [1]: 0.00
Average detailed clinical score, left hind limb [1]: 0.00
Average detailed clinical score, right forelimb [1]: 0.00
Average detailed clinical score, right hind limb [1]: 0.13
Average detailed clinical score, score [1]: 0.13
Average overall clinical score [1]: 0
Average animal paw volume [2]: 1.42 mL
Average animal paw volume percent change (%) [2]: 7.45%
Average animal paw volume [3]: 1.40 mL
Average animal paw volume percent change (%) [3]: 6.55%
Average animal paw volume [4]: 1.41 mL
Average animal paw volume percent change (%) [4]: 7.21%
Average animal paw volume [5]: 1.43 mL
Average animal paw volume percent change (%) [5]: 7.62%
Average animal paw volume [6]: 1.40 mL
Average animal paw volume percent change (%) [6]: 6.26%
Average animal paw volume [7]: 1.41 mL
Average animal paw volume percent change (%) [7]: 7.41%
Average detailed clinical score, left forelimb [8]: 0
Average detailed clinical score, left hind limb [8]: 0
Average detailed clinical score, right forelimb [8]: 0
Average detailed clinical score, right hind limb [8]: 0
Average detailed clinical score, score [8]: 0
Average overall clinical score [8]: 0
Overall Clinical Score (Day 13, CIA + Compound A 1 mg/kg, 1 mg/kg): 0 (6×) and 2 and 1
Average detailed clinical score, left forelimb [9]: 0
Average detailed clinical score, left hind limb [9]: 0
Average detailed clinical score, right forelimb [9]: 0
Average detailed clinical score, right hind limb [9]: 0
Average detailed clinical score, score [9]: 0
Average overall clinical score [9]: 0
Overall Clinical Score (Day 13, CIA + Compound A 3 mg/kg, 3 mg/kg): 0
Average detailed clinical score, left forelimb [10]: 0
Average detailed clinical score, left hind limb [10]: 0.125
Average detailed clinical score, right forelimb [10]: 0.125
Average detailed clinical score, right hind limb [10]: 0.25
Average detailed clinical score, score [10]: 0.5
Average overall clinical score [10]: 1
Average animal paw volume [11]: 1.53 mL
Average animal paw volume percent change (%) [11]: 15.36%
Average animal paw volume [12]: 1.44 mL
Average animal paw volume percent change (%) [12]: 9.64%
Average animal paw volume [13]: 1.44 mL
Average animal paw volume percent change (%) [13]: 9.68%
Average animal paw volume [14]: 1.49 mL
Average animal paw volume percent change (%) [14]: 11.73%
Average animal paw volume [15]: 1.45 mL
Average animal paw volume percent change (%) [15]: 10.16%
Average animal paw volume [16]: 1.44 mL
Average animal paw volume percent change (%) [16]: 9.90%
Average detailed clinical score, left forelimb [17]: 0
Average detailed clinical score, left hind limb [17]: 1
Average detailed clinical score, right forelimb [17]: 0
Average detailed clinical score, right hind limb [17]: 0
Average detailed clinical score, score [17]: 1
Average overall clinical score [17]: 1
Overall Clinical Score (Day 14, CIA + Compound A 1 mg/kg, 1 mg/kg): 0 (3×) and 2 (2×) and 1 (3×)
Average detailed clinical score, left forelimb [18]: 0
Average detailed clinical score, left hind limb [18]: 0
Average detailed clinical score, right forelimb [18]: 0
Average detailed clinical score, right hind limb [18]: 0
Average detailed clinical score, score [18]: 1
Average overall clinical score [18]: 1
Overall Clinical Score (Day 14, CIA + Compound A 3 mg/kg, 3 mg/kg): 0
Average detailed clinical score, left forelimb [19]: 0
Average detailed clinical score, left hind limb [19]: 0.25
Average detailed clinical score, right forelimb [19]: 0
Average detailed clinical score, right hind limb [19]: 0.375
Average detailed clinical score, score [19]: 0.625
Average overall clinical score [19]: 1
Average animal paw volume [20]: 1.64 mL
Average animal paw volume percent change (%) [20]: 24.11%
Average animal paw volume [21]: 1.54 mL
Average animal paw volume percent change (%) [21]: 16.70%
Average animal paw volume [22]: 1.54 mL
Average animal paw volume percent change (%) [22]: 16.95%
Animal paw volume percent change (%) (Day 15, L paw, group 5 CIA + Compound A 1 mg/kg, 1 mg/kg): 10.73% and 42.25% and 30.26% and 23.40% and 10.86% and 24.91% and 44.53%
Animal paw volume percent change (%) (Day 15, L paw, group 6 CIA + Compound A 3 mg/kg, 3 mg/kg): 12.93% and 23.35% and 12.17% and 8.79% and 18.01% and 25.47%
Average animal paw volume [23]: 1.58 mL
Average animal paw volume percent change (%) [23]: 19.02%
Average animal paw volume [24]: 1.51 mL
Average animal paw volume percent change (%) [24]: 14.88%
Average animal paw volume [25]: 1.50 mL
Average animal paw volume percent change (%) [25]: 14.23%
Animal paw volume percent change (%) (Day 15, R paw, group 5 CIA + Compound A 1 mg/kg, 1 mg/kg): 8.43% and 39.77% and 13.09% and 24.15% and 10.33% and 30.42% and 20.00%
Animal paw volume percent change (%) (Day 15, R paw, group 6 CIA + Compound A 3 mg/kg, 3 mg/kg): 4.53% and 9.73% and 9.81% and 5.20% and 34.75% and 17.23%
Average detailed clinical score, left forelimb [26]: 0
Average detailed clinical score, left hind limb [26]: 1
Average detailed clinical score, right forelimb [26]: 0
Average detailed clinical score, right hind limb [26]: 1
Average detailed clinical score, score [26]: 2
Average overall clinical score [26]: 2
Overall Clinical Score (Day 15, CIA + Compound A 1 mg/kg, 1 mg/kg): 0 (3×) and 4 and 3 (3×) and 2
Average detailed clinical score, left forelimb [27]: 0
Average detailed clinical score, left hind limb [27]: 1
Average detailed clinical score, right forelimb [27]: 0
Average detailed clinical score, right hind limb [27]: 1
